The subject of data set [1] is HT-29 human colorectal carcinoma. Briefly: MTT cell viability assay, HT-29. In kind it is cell-based. Particulars: MTT test, 72 h of action, read-out: IC50, Tumour Cell Lines, HT-29 Human Colorectal Carcinoma. Here is the method: (§1) The MTT cell viability assay was performed according to a previously reported protocol. Briefly, adherent cells were seeded at a density of 5000 cells per 100 µL, and suspension cells at 25,000 cells per 100 µL, in 96-well plates and incubated overnight. Subsequently, test compounds were added in 100 µL of culture medium, followed by incubation for 72 h. After treatment, 20 µL of MTT solution (5 mg/mL, Sigma-Aldrich, Burlington, MA, USA) was added to each well. The resulting formazan crystals were dissolved in DMSO (Sigma-Aldrich, Burlington, MA, USA), and absorbance was recorded using a BioTek ELx800 Absorbance Reader (BioTek Instruments, Inc., Vinooski, VT, USA). IC50 values were calculated by nonlinear regression analysis using GraphPad Prism (version 9.1.1, GraphPad Software, Boston, MA, USA). Experiments were conducted in triplicate. Human leukemia Jurkat T-cells, human glioblastoma U251 cells were kindly provided by Collection at the Institute of Molecular Biology and Genetics, National Academy of Sciences of Ukraine (Kyiv, Ukraine). Murine macrophages of J774.2 line were a generous gift from Prof. Sir John Vane (William Harvey Research Institute, London, UK) provided via Prof. Janusz Marcinkiewicz (Jagiellonian University Medical College, Krakow, Poland). Human colorectal adenocarcinoma cell line HT-29 was kindly provided by Prof. Anna Bielawska (Department of Biotechnology, Faculty of Pharmacy, Medical University of Bialystok, Poland). Murine BALB/3T3 fibroblasts was obtained from the Cell Collection of the R.E. Kavetsky Institute of Experimental Pathology, Oncology and Radiobiology (Kyiv, Ukraine).

Data set [2] concerns Jurkat human acute T-cell leukaemia. Briefly: MTT cell viability assay, Jurkat. In kind it is cell-based. Particulars: MTT test, 72 h of action, read-out: IC50, Tumour Cell Lines, Jurkat Human Acute T-Cell Leukaemia. As for the experimental part: as §1
A general note: Formazan colour is commonly taken as a measure of viable cells.

In data set [3] the test system is U251 human malignant glioblastoma. Briefly: MTT cell viability assay, U251. Particulars: U-251, MTT test, 72 h of action, read-out: IC50, Tumour Cell Lines, U251 Human Malignant Glioblastoma. In kind it is cell-based. Here is the method: as §1
Data set [4] has as its system J744.2 mice macrophage-like cells. Description: MTT cell viability assay, J744.2. In kind it is cell-based. The conditions noted are these: Mus musculus; MTT test, 72 h of action; read-out: IC50, Pseudo-Normal Cell Lines, J744.2 Mice Macrophage-Like Cells. Here is the method: as §1
Another data set relates to Balb-3T3 mice fibroblast. Briefly: MTT cell viability assay, Balb-3T3. It is filed as cell-based. The conditions noted are these: Mus musculus, MTT test, 72 h of action, read-out: IC50, Pseudo-Normal Cell Lines, Balb-3T3 Mice Fibroblast. Here is the method: as §1
Data set [5] has as its system human lung cancer cells (A549). Further details: method as in PMID 15464834, doi:10.1177/1934578X0700200419. Particulars: read-out: IC50 in cultured human lung cancer cells (A549); cited from earlier work.
The subject of another data set is Jurkat cells. Briefly: Fluorescent microscopy of Jurkat cells (Hoechst 33342/EtBr staining). In kind it is cell-based, human. The conditions noted are these: 0.5 µM, 24 h. As for the experimental part:
Jurkat cells were seeded in 24-well plates at a density of 250,000 cells/mL and incubated overnight prior to treatment. Cells were then treated for 24 h with compounds 4, 7, and 8 (0.5 µM) or doxorubicin (0.5 µM) as a positive control. Following treatment, cells were stained with Hoechst 33342 (0.2–0.5 µg/mL; Sigma-Aldrich, USA) and ethidium bromide (EtBr, 1 µg/mL). Fluorescence imaging was performed using a LIM-400 microscope (LABEX INSTRUMENT LIMITED, Ningbo, China) equipped with an MTR3CCD camera. Images were captured and analysed using ImageView software (version 4.11.21522.20221011).

The test system of the next data set is salmon sperm DNA. Briefly: DNA intercalation assay (methyl green displacement method). Particulars: 1 and 10 μM; for percentage of methyl green dye replaced from its complex with DNA: range over both doses; for affinity for DNA: methyl green displacement, in words. In kind it is binding. Here is the method: To investigate the potential mechanisms of cell death induced by the studied derivative, we evaluated apoptosis using the fluorescence microscopy of cells stained with Hoechst-33342 and Ethidium Bromide (EtBr), as well as spectroscopic and DNA/methyl green displacement assays. Methyl green is a cationic dye that binds preferentially to the phosphate backbone of DNA (primarily in the major groove). If a compound (an intercalator or groove-binding agent) is added, it can compete with methyl green for binding to DNA. The higher the percentage of substituted methyl green, the stronger the compound interacts with DNA. Intercalation is the key feature of clinically used antitumor drugs, e.g., doxorubicin (DOX). DOX displaced 41.62–45.52% of methyl green from its complex with DNA (Figure 10). Another intercalator, EtBr, replaced 42.12–47.35% of methyl green from its complex with DNA.
A 485 μL aliquot of salmon sperm DNA (50 μg/mL, Sigma-Aldrich, Burlington, MA, USA) was incubated with 15 μL of methyl green solution (1 mg/mL, Sigma-Aldrich, Burlington, MA, USA) at 37 °C for 1 h. Subsequently, 500 μL of the test compounds, doxorubicin, or ethidium bromide (each at final concentrations of 1 μM and 10 μM) was added to the preformed methyl green–DNA complex. The samples were further incubated at 37 °C for 2 h in the dark. Absorbance was then recorded at 630 nm. GraphPad Prism (version 9.1.1, GraphPad Software, Boston, MA, USA) was used for the results analysis. Experiments were conducted in triplicate. Doxorubicin and ethidium bromide were purchased from Sigma-Aldrich, USA.

The subject of a further data set is P450 CYP1B1 isoform. The arrangement: method as in PMID 28632937. Particulars: read-out: IC50 against the P450 CYP1B1 isoform; cited from earlier work.
For data set [6], the system named is Staphylococcus aureus 209P. The arrangement: method as in PMID 37298957. The conditions noted are these: in words; cited from earlier work.
A further data set concerns glioblastoma U87. Further details: method as in PMID 28669347. The conditions noted are these: cited from earlier work.
Another data set has as its system cervical cancer HeLa. Further details: method as in PMID 28669347. Particulars: cited from earlier work.
Data set [7] has as its system HeLa, MDA-MB-231, and MCF-7. The arrangement: method as in PMID 32171988. Particulars: in words; cited from earlier work.
The test system of the next data set is Mucor indicus. Further details: method as in PMID 30790326. The conditions noted are these: cited from earlier work.
Data set [8] has as its system ovarian cancer 2D culture. Further details: method as in PMID 27585955. Particulars: 2D culture and liposomal drug delivery system; cited from earlier work.
The test system of data set [9] is patient P3 cell lines (3D model, patient-derived ovarian cancer). Further details: method as in PMID 27585955. Particulars: 3D spheroid model; cited from earlier work.
A further data set deals with SK-OV-3 (3D model). The arrangement: method as in PMID 27585955. Particulars: 3D spheroid model; cited from earlier work.

These results are taken from article PMC12735739, “Bromo Analogues of Active 3,4,5,4′-Tetramethoxy-trans-stilbene (DMU-212)—A New Path of Research to Anticancer Agents” (Molecules, 2025).

≈ marks a conversion by molar mass, not a printed value.

Regarding `COc1cc(OC)c(OC)cc1/C=C/c1ccc(OC)c(OC)c1` [Compound 10, 2,3’,4,4’,5-pentamethoxy-trans-stilbene], the IC50 in [1] was over 100 µM; in data set [2] it was 8.95 µM; in data set [3], over 100 µM; in data set [4], 91.6 µM; with Balb-3T3 mice fibroblast, over 100 µM.
Turning to `COc1ccc(/C=C(\C#N)c2cc(OC)c(OC)c(OC)c2)cc1OC` [Z isomer of compound XII, reference compound], the IC50 in [5] was 0.03 µM.
`COc1ccc(/C=C/c2cc(OC)c(OC)c(OC)c2)cc1` [Compound 7, 3,4,5,4′-tetramethoxy-trans-stilbene]: the IC50 was over 100 µM in data set [1]; 0.65 µM in [2]; over 100 µM in data set [3]; 0.83 µM in [4]; 2.79 µM in the data set with Balb-3T3 mice fibroblast. Moreover, the “effect on cell morphology and viability (apoptosis, chromatin condensation, DNA fragmentation)” value (from here on “effect on cell morphology and viability”) in the data set on Jurkat cells is “markedly reduced viable cell numbers and enhanced nuclear fragmentation”. Also, the “percentage of methyl green dye replaced from its complex with DNA” value (from here on “percentage of methyl green dye replaced”) in the data set with salmon sperm DNA is on record as 1.87–5.98%. In addition, in the data set with salmon sperm DNA, the “affinity for DNA” value is listed as “low affinity for DNA”.
As for `CC[n+]1c(-c2ccccc2)c2cc(N)ccc2c2ccc(N)cc21` [EtBr, Ethidium Bromide, reference compound], the “percentage of methyl green dye replaced” value in the data set on salmon sperm DNA was 42.12–47.35%.
On to `CSc1ccc(/C=C/c2ccccc2SC)cc1` [VI, 2,4′-dimethylthio-trans-stilbene], for which the IC50 with P450 CYP1B1 isoform is 0.026 µM.
With `COc1cc(/C=C/c2cc(Br)c(OC)c(Br)c2)cc(OC)c1OC` [Compound 3, 3,5-dibromo-3′,4′,5′,4-tetramethoxy-trans-stilbene], the IC50 in data set [1] was over 100 µM; in data set [2], over 100 µM; in data set [3] it was over 100 µM; in [4], 20.4 µM; in the data set on Balb-3T3 mice fibroblast, 76.4 µM.
In the case of `COc1cc(Br)c(/C=C/c2cc(OC)c(OC)c(OC)c2)cc1OC` [Compound 5, 2-bromo-3′,4′,5′,4,5-pentamethoxy-trans-stilbene], the 50% inhibitory concentration (IC50) is over 100 µM in data set [1]; 68.5 µM in data set [2]; over 100 µM in data set [3]; 71.1 µM in [4]; 51.7 µM in the data set on Balb-3T3 mice fibroblast.
Consider `Oc1ccccc1/C=C/c1cc[n+](Cc2ccccc2Br)cc1.[Br-]` [IX, 1-(2-bromobenzyl)-4-[(E)-2-(2-hydroxyphenyl)ethenyl]pyridinium bromide], for which the “activity against Staphylococcus aureus 209P” value in data set [6] is “promising activity”.
Take `COc1ccc(/C=C/c2cc(OC)c(OC)c(OC)c2)cc1OC` [Compound 8, 3,3′,4,4’,5-pentamethoxy-trans-stilbene]: the IC50 in [1] was over 100 µM; in [2], 0.82 µM; in data set [3], over 100 µM; in data set [4] it was 3.83 µM; in the data set on Balb-3T3 mice fibroblast, 5.04 µM. Further, in the data set on Jurkat cells, the “effect on cell morphology and viability” value was “induced moderate apoptosis”. Besides, the “percentage of methyl green dye replaced” value in the data set with salmon sperm DNA is 1.87–5.98%. In addition, in the data set with salmon sperm DNA, the “affinity for DNA” value was “low affinity for DNA”.
With `COc1ccc(/C=C/c2ccc([N+](=O)[O-])cc2[N+](=O)[O-])c(O)c1` [VIII, 2-hydroxy-4-methoxy-2′,4′-ditro-trans-stilbene], the IC50 with glioblastoma U87 was 55.8 µM; in the data set on cervical cancer HeLa, 6.97 µM.
For the compound `COc1cccc2c1C(=O)c1c(O)c3c(c(O)c1C2=O)C[C@@](O)(C(=O)CO)C[C@@H]3O[C@H]1C[C@H](N)[C@H](O)[C@H](C)O1` [DOX, doxorubicin, reference compound], the “effect on cell morphology and viability” value with Jurkat cells was “elicited a similar morphological disruption and chromatin fragmentation as compound 8 did”. In the data set with salmon sperm DNA, the “percentage of methyl green dye replaced” value is given as 41.62–45.52%.
`CCCCCCCCCCCCCCCC[N+](C)(CCCCCCCCCCCCCCCC)CNC(=O)c1cc(OC)c(OC)c(OC)c1/C=C/c1cc(OC)c(OC)c(OC)c1` [VII, quaternary amine derivative chloride of 4,5,6,3′,4′,5′-hexamethoxy-trans-stilbene]: the “antitumor activity against cancer lines compared with resveratrol and tamoxifen” value in [7] is recorded as “higher antitumor activity”.
Consider `COc1cc(/C=C/c2cc(Br)cc(Br)c2)cc(OC)c1OC` [Compound 6, 3,5-dibromo-3′,4′,5′-trimethoxy-trans-stilbene], for which the IC50 in data set [1] was over 100 µM; in data set [2] it was 65.3 µM; in data set [3] it was over 100 µM; in [4], 9.97 µM; in the data set with Balb-3T3 mice fibroblast, 3.75 µM.
For `COc1cc(/C=C/c2ccc(Br)cc2)cc(OC)c1OC` [Compound 1, 4-bromo-3′,4′,5′-trimethoxy-trans-stilbene], the IC50 in [1] was over 100 µM; in data set [2], 2.26 µM; in [3], over 100 µM; in data set [4], 6.63 µM; with Balb-3T3 mice fibroblast, 3.2 µM; in data set [5] it was 6.36 µM. Besides, the “MIC toward Mucor indicus” value in the data set on Mucor indicus was 25 µg/mL (≈ 71.6 µM).
On to `COc1cc(/C=C/c2cc(OC)c(OC)c(OC)c2)cc(Br)c1OC` [Compound 2, 3-bromo-3′,4′,5′,4,5-pentamethoxy-trans-stilbene], for which the IC50 is over 100 µM in data set [1]; over 100 µM in data set [2]; over 100 µM in data set [3]; 7.93 µM in data set [4]; 72.8 µM with Balb-3T3 mice fibroblast.
“3-hydroxy-3,4,5,4′-tetramethoxy-trans-stilbene [DMU-214]”: the IC50 in [8] was 0.022 µM; in data set [9], 0.5 to 22.9 µM; in the data set on SK-OV-3 (3D model) it was 2.9 to 14.1 µM.

One may read the IC50 as the midpoint of a concentration-inhibition curve.
